Results as given in patent US12662530B2, “Anti-ADM-antibodies binding to the free N-terminus for accelerated transition of ADM-Gly to bio-ADM in patients with ADM-Gly/ bio-ADM ratio above a threshold and combination with vitamin C” (SphingoTec GmbH, priority 2020, dated 2026).
Where two headings read alike, the source gives them in different places.

Experiments:
[1] = Single escalating i.v. doses in healthy male subjects (phase I): ADM values and safety; assay type: in vivo, human
Experimental: The study was described in Geven et al. (Geven et al. 2017. Intensive Care Med Exp 5 (Suppl 2): 0427). Briefly, the study was conducted in healthy male subjects as a randomized, double-blind, placebo-controlled, study with single escalating doses of NT-H antibody (HAM8101) administered as intravenous (i.v.) infusion in 3 sequential groups of 8 healthy male subjects each (1st group 0.5 mg/kg, 2nd group 2 mg/kg, 3rd group 8 mg/kg) of healthy male subjects (n=6 active, n=2 placebo for each group). The main inclusion criteria were written informed consent, age 18-35 years, agreement to use a reliable way of contraception and a BMI between 18 and 30 kg/m^2. Subjects received a single i.v. dose of NT-H antibody (HAM8101) (0.5 mg/kg; 2 mg/kg; 8 mg/kg) or placebo by slow infusion over a 1-hour period in a research unit.

[2] = tested on: human native PAM; assay: bio-ADM maturation activity (AMA) in samples of healthy subjects before and after administration; assay type: in vivo
Experimental: Human serum was used as source of human native PAM. Each sample (20 μl) was diluted two-fold in 100 mM Tris-HCl in duplicate. The amidation reaction was initiated by addition of 160 μl of NT-ADM antibodies (HAM8101, AK1373, AK1388, AK1398 or AK1434) or MR-ADM antibodies (ADM43, ADM38, ADM41, ADM2901, ADM2902 and ADM2903) containing PAM-reaction buffer (100 mM Tris-HCl, pH 7.5, 6.25 μM CuSO4, 2.5 mM Ascorbate, 125 μg/mL Catalase, 62.5 μM Amastatin, 250 μM Leupeptin, and 36 ng/mL synthetic 1-53 Adrenomedullin-Gly as substrate). The final antibody concentrations were 100 μg/mL, respectively. Afterwards, 100 μl of each individual reaction of duplicated samples were combined and transferred into 20 μl of 200 mM EDTA to terminate the amidation reaction and thus to generate a t=0 minutes reaction time-point followed by incubation at 37° C. for 40 minutes. Afterwards the non-terminated reactions were stopped with 10 μl of 200 mM EDTA. To determine the PAM activity in NT-ADM antibody containing samples, bio-ADM was quantified in each reaction using the Sphingotest® bio-ADM immunoassay (Weber et al. 2017, supra). The MR-ADM antibody containing reaction was transferred to an alternative bio-ADM assay (description below). A control reaction without antibodies was measured in both bio-ADM assays. For each sample the difference between t=40 min and t=0 min bio-ADM concentration was calculated. PAM activity is described as ng bio-ADM formed per hour and L of sample and was normalized to the reaction without antibody addition, which was set as 100%.
The formation of bio-ADM from ADM-Gly by recombinant human PAM enzyme and the invivo influence of the N-terminal anti-Adrenomedullin antibody HAM8101 using samples from healthy subjects that received HAM8101 was investigated by measuring the bio-ADM maturation activity (AMA).
Samples from n=3 subjects from each administration group before and 1 hour after administration of HAM8101 were used. Activity was determined as described for Serum samples in example 5b). The assay was calibrated using recombinant human PAM of known activity (InVivo Biotech Services GmbH, Hennigsdorf). Calibrators, controls and samples were treated in the same manner. The produced bio-ADM in the reaction-samples was quantified using the Sphingotest® bio-ADM assay (Weber et al., 2017). For each sample the difference of the t=40 min and t=0 min signal (RLUs, relative light units) was calculated and the signal (RLU(t40−t0 min)) of the calibrator was used to determine the AMA in tested serum samples. AMA is expressed as ng bio-ADM formed per hour and Liter of sample (ng/[h*L]).

[3] = tested on: ADM-Gly to bio-ADM conversion; assay type: in vivo; conditions: for ADM-Gly/bioADM Ratio: Table 4, n 9
From the text: ADM-Gly was quantified as based on Weber et al. (Weber et al. 2017. JALM 2(2): 222-233) for bioactive ADM with the following modifications: the tracer-antibody used for ADM-Gly detection, labelled with MACN-acridinium-NHS, was directed to the C-terminal glycine of ADM-Gly. The assay was calibrated with synthetic ADM-Gly. […] All determined ADM-Gly concentrations were corrected for cross-reactivity as follows: For each ADM-Gly quantification additional quantification of bio-ADM in corresponding samples was performed using the Sphingotest® bio-ADM immunoassay. The corresponding bio-ADM values were used to determine the signal (RLU) generated with the antibody directed to C-terminal glycine of ADM on a bio-ADM calibration curve. The determined signal (RLU) was used to calculate the false-positive ADM-Gly concentration (pg/mL) using the ADM-Gly calibration curve. This concentration was subtracted from the initially determined ADM-Gly concentration. […]
(§1) Critically ill subjects were from the AdrenOSS-I cohort described in example 7. Healthy and healthy HAM8101 treated subjects were from the study cohort described in example 6 (Geven et al. 2017. Intensive Care Med Exp 5 (Suppl 2): 0427). Bio-ADM was determined as described by Weber et al., 2017. ADM-Gly was determined as described in example 4.

[4] = tested on: MR-proADM/bio-ADM ratio; assay: MR-proADM/bio-ADM ratio in samples of healthy subjects after administration; assay type: in vivo, human; conditions: Table 5, n 18
Experimental: as §1
The same patients as described in example 8 were also analysed for their MR-proADM/ADM-NH2 ratio.

[5] = group 1 (0.5 mg/kg), after 24 hours
[6] = group 2 (2 mg/kg), after 24 hours
[7] = group 3 (8 mg/kg), after 24 hours

## HAM8101: humanized N-terminal anti-ADM antibody, heavy chain SEQ ID No. 35, light chain SEQ ID No. 36
[1]; healthy human individuals, 0.5, 2, 8 mg/kg i.v., FIG. 10
  time within which ADM-values rapidly increased after administration: ≤ 1.5 h
[1]; healthy male subjects, single i.v. dose 0.5, 2, 8 mg/kg
  safety: heart rate, mean arterial pressure, peripheral oxygen saturation, temperature: did not influence heart rate, mean arterial pressure, peripheral oxygen saturation or temperature
[1]; healthy male subjects, single i.v. dose 0.5, 2, 8 mg/kg versus placebo
  routine haematological and biochemical safety laboratory measurements: no significant differences between groups
[2]; group 1 (0.5 mg/kg), after 1 hour
  AMA increased by: approximately 60%
[2]; group 1 (0.5 mg/kg), after 4 hours
  AMA increased by: ~40%
[2]; [5]
  AMA increased by: ~52%
[2]; group 2 (2 mg/kg), after 1 hour
  AMA increased by: approximately 27%
[2]; group 2 (2 mg/kg), after 4 hours
  AMA increased by: ~25%
[2]; [6]
  AMA increased by: ~40%
[2]; group 3 (8 mg/kg), after 1 hour
  AMA increased by: approximately 65%
[2]; group 3 (8 mg/kg), after 4 hours
  AMA increased by: ~48%
[2]; [7]
  AMA increased by: approximately 60%
[3]; Healthy HAM8101 treated (1 h)
  ADM-Gly/bioADM Ratio: 0.61
[3]; Healthy HAM8101 treated (4 h)
  ADM-Gly/bioADM Ratio: 0.33
[3]; group 1 (0.5 mg/kg), after 1 h, FIG. 12
  ratio of ADM-Gly/bio-ADM: approximately 0.75
[3]; [5]
  ratio of ADM-Gly/bio-ADM: No further change
[3]; group 1 (0.5 mg/kg), four hours after administration
  ratio of ADM-Gly/bio-ADM: approximately 0.38
[3]; group 2 (2 mg/kg), after 1 h
  ratio of ADM-Gly/bio-ADM: ~0.63
[3]; [6]
  ratio of ADM-Gly/bio-ADM: No further change
[3]; group 2 (2 mg/kg), four hours after administration
  ratio of ADM-Gly/bio-ADM: ~0.25
[3]; group 3 (8 mg/kg), after 1 h
  ratio of ADM-Gly/bio-ADM: ~0.43
[3]; [7]
  ratio of ADM-Gly/bio-ADM: approximately 0.5
[3]; group 3 (8 mg/kg), four hours after administration
  ratio of ADM-Gly/bio-ADM: approximately 0.38
[4]; Healthy HAM8101 treated (1 h)
  MR-proADM/bio-ADM ratio: 44.6
[4]; Healthy HAM8101 treated (4 h)
  MR-proADM/bio-ADM ratio: 42.4
